As usually defined, the IC50 is the concentration at which inhibition is half-maximal.

Consider 31 compounds from patent US10544143B2, “4-azaindole compounds” (BRISTOL-MYERS SQUIBB COMPANY, priority 2017, dated 2020).

For test [1], the target named is human TLR9 (Homo sapiens (Human), UniProt Q9NR96). Kind of test: TLR9 inhibition reporter assay (HEK-Blue SEAP).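 Also: SEAP driven by an IFN-β minimal promoter with NF-κB and AP-1 sites, read after 22 h, compounds dosed 0.05 nM–50 µM, inhibition scaled between agonist plus DMSO and reference-inhibitor wells.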 The following applies: read-out: TLR9 IC50; HEK-Blue cells overexpressing human TLR9, ODN2006 5 nM stimulation, SEAP reporter.
In test [2] the target is human TLR7 (Homo sapiens (Human), UniProt Q9NYK1). Kind of test: TLR7 inhibition reporter assay (HEK-Blue SEAP). The test is classed as cell-based. As to conditions: HEK-Blue cells overexpressing human TLR7, gardiquimod 7.5 μM stimulation, SEAP reporter. (In general: A reporter such as luciferase makes a cellular process visible.)
The target of test [3] is human TLR8 (Homo sapiens (Human), UniProt Q9NR97). Kind of test: TLR8 inhibition reporter assay (HEK-Blue SEAP).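 Also: SEAP driven by IFN-β minimal promoter carrying NF-κB and AP-1 sites, compounds dosed 0.05 nM to 50 µM for 22 h, inhibition scaled between agonist-plus-DMSO and reference-inhibitor wells.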 As to conditions: read-out: TLR8 IC50; HEK-Blue cells overexpressing human TLR8, R848 15.9 μM stimulation, SEAP reporter.
Sequence of human TLR8 (Q9NR97 27-1041): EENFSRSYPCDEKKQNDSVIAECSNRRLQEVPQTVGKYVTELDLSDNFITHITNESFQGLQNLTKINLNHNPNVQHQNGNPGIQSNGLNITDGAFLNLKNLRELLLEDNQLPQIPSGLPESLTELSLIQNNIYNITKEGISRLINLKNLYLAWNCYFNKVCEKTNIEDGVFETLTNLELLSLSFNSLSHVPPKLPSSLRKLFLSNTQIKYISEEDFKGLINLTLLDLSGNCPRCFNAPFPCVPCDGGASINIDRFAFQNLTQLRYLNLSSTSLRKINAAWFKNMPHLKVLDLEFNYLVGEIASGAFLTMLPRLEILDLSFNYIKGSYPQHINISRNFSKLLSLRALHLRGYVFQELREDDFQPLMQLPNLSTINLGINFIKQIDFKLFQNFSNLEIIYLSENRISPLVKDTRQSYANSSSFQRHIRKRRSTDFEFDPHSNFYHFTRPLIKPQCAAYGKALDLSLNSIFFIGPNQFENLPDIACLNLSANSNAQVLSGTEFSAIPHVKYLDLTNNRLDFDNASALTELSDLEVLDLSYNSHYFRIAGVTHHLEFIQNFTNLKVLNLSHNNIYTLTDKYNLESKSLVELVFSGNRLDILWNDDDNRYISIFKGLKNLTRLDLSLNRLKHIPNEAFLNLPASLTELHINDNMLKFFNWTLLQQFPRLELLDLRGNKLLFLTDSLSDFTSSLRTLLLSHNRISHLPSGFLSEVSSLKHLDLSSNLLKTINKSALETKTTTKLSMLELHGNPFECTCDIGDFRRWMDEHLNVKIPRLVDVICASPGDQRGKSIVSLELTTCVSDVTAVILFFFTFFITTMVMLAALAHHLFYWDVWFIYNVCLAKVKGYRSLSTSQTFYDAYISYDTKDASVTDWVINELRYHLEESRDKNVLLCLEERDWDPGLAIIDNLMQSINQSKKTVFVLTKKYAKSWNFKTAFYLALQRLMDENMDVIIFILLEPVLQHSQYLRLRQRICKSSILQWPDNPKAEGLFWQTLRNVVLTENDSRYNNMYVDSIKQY

Sequence of human TLR7 (Q9NYK1 27-1049): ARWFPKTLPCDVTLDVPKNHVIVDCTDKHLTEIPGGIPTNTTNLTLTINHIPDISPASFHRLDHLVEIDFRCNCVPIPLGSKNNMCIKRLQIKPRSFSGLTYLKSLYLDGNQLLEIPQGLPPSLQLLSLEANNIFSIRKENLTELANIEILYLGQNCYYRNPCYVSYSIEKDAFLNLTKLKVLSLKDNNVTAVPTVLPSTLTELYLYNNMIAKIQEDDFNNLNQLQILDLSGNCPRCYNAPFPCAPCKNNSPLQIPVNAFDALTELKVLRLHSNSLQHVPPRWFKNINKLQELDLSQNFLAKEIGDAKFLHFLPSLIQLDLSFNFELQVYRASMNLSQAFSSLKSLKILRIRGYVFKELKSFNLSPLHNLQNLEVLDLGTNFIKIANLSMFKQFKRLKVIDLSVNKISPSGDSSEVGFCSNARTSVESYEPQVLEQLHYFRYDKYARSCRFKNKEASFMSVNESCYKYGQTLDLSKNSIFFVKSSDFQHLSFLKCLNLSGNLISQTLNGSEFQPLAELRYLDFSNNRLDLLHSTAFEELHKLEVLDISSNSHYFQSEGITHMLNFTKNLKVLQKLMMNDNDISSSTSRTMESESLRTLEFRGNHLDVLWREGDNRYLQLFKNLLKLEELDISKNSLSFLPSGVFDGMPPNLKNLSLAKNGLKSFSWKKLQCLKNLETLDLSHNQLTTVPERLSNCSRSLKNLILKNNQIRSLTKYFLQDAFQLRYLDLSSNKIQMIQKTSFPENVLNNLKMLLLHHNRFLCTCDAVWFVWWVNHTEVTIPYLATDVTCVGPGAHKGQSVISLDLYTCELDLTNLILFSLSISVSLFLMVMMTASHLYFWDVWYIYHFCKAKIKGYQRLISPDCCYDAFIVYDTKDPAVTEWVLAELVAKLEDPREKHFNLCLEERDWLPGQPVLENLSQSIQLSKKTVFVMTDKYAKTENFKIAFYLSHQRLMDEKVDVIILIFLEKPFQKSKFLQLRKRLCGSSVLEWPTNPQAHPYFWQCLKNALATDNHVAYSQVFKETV
Sequence of human TLR9 (Q9NR96 26-1032): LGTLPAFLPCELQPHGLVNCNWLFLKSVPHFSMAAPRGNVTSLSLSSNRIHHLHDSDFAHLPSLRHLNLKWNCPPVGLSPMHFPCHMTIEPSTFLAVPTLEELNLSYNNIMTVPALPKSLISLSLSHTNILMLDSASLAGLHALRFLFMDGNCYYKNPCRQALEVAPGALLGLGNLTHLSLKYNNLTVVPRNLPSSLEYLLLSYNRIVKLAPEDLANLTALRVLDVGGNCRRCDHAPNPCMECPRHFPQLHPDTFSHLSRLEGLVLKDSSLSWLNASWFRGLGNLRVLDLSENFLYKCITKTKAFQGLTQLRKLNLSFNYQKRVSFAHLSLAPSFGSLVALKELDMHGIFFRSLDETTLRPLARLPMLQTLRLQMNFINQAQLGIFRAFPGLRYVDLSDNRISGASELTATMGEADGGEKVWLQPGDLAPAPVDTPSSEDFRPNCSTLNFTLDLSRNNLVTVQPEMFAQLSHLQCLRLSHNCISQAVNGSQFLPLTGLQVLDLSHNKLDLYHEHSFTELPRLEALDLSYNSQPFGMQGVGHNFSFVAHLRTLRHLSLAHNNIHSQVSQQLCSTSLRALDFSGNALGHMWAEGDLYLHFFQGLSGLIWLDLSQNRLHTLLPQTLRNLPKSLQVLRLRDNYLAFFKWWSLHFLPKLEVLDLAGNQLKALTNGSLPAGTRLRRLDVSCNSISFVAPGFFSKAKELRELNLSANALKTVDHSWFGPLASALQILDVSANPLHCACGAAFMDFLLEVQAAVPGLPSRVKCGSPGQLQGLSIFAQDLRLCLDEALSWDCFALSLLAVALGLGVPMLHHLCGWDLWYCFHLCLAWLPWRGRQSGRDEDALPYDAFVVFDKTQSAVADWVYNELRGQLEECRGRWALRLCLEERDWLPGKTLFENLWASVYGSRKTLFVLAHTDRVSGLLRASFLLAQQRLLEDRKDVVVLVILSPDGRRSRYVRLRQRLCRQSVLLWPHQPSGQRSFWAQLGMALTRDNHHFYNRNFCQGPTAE

For the compound `Cc1c(-c2[nH]c3ccc(C4CCC(N(C)C5COC5)CC4)nc3c2C(C)C)cn(C)c(=O)c1C` (stereo not drawn) [Example 249], the results for the IC50 in test [1], in test [2] and in test [3] were 5980 nM, 25 nM and 7.3 nM, respectively.

With `Cc1cc(-c2[nH]c3ccc(C4CCC(N(C)C5COC5)CC4)nc3c2C(C)C)cn(C)c1=O` (stereo not drawn) [Example 250], the values for the IC50 in test [1], in test [2] and in test [3] were 13700 nM, 26 nM and 57 nM, respectively.

As for `CC(C)c1c(-c2cn(C)c3ncccc23)[nH]c2ccc(C3CCC(NCCS(C)(=O)=O)CC3)nc12` (stereo not drawn) [Example 251], the half-maximal inhibitory concentration (IC50) in test [1] worked out at 1750 nM; in test [2], 8.6 nM; in test [3] it was 13 nM.

As to `CC(C)c1c(-c2cc(CO)c3ncnn3c2)[nH]c2ccc(C3CCC(N(C)C4COC4)CC3)nc12` (stereo not drawn) [Example 252], the half-inhibitory concentration (IC50) in test [1] was found to be 7260 nM; in test [2], 8 nM; in test [3], 10 nM.

On to `COc1cc(-c2[nH]c3ccc(C4CCC(N5CC6(C5)CS(=O)(=O)C6)CC4)nc3c2C(C)C)cn2ncnc12` (stereo not drawn) [Example 253], for which the IC50 in test [1] turned out to be 1150 nM; in test [2], 0.65 nM; in test [3] it was 0.72 nM.

Take `Cc1c(-c2[nH]c3ccc(C4CCC(N(C)C5COC5)CC4)nc3c2C(C)C)cn(C)c(=O)c1C` (stereo not drawn) [Example 254]: the IC50 came out at 8730 nM in test [1], 72 nM in test [2] and 27 nM in test [3].

As to `CC(C)c1c(-c2cn(C)c3ncccc23)[nH]c2ccc(C3CCC(N4CC5(C4)CS(=O)(=O)C5)CC3)nc12` (stereo not drawn) [Example 255], the IC50 in test [1] is 218 nM; in test [2] it was 0.6 nM; in test [3], 0.25 nM.

For the compound `CC(C)c1c(-c2cn(C)c3ncccc23)[nH]c2ccc(C3CCC(N4CC5(C4)CS(=O)(=O)C5)CC3)nc12` (stereo not drawn) [Example 256], the 50% inhibitory concentration (IC50) in test [1] came to 335 nM; in test [2], 1.2 nM; in test [3] it was 3.7 nM.

Regarding `CC(C)c1c(-c2cn(CCS(C)(=O)=O)c3ncccc23)[nH]c2ccc(C3CCC(NCC(=O)N(C)C)CC3)nc12` (stereo not drawn) [Example 257], the IC50 in test [1] came out at 175 nM; in test [2], 35 nM; in test [3] it was 25 nM.

Regarding `CC(C)c1c(-c2cn(CCS(C)(=O)=O)c3ncccc23)[nH]c2ccc(C3CCC(N4CC5(COC5)C4)CC3)nc12` (stereo not drawn) [Example 258], the values for the half-maximal inhibitory concentration (IC50) in test [1], in test [2] and in test [3] were 100 nM, 13 nM and 3.5 nM, respectively.

With `CC(C)c1c(-c2cn(CCS(C)(=O)=O)c3ncccc23)[nH]c2ccc(C3CCC(NCC4(S(C)(=O)=O)CC4)CC3)nc12` (stereo not drawn) [Example 259], the IC50 in test [1] was 321 nM; in test [2] it was 19 nM; in test [3] it was 7.1 nM.

Regarding `CC(C)c1c(-c2cn(CCS(C)(=O)=O)c3ncccc23)[nH]c2ccc(C3CCC(O)CC3)nc12` (stereo not drawn) [Example 260], the values for the IC50 in test [1], in test [2] and in test [3] were 10900 nM, 527 nM and 173 nM, respectively.

Turning to `CC(C)c1c(-c2cn(CCS(C)(=O)=O)c3ncccc23)[nH]c2ccc(C3CCC(NCC(=O)N(C)C)CC3)nc12` (stereo not drawn) [Example 261], the values for the IC50 in test [1], in test [2] and in test [3] were 381 nM, 262 nM and 90 nM, respectively.

Turning to `CC(C)c1c(-c2cn(CCS(C)(=O)=O)c3ncccc23)[nH]c2ccc(C3CCC(NCC4(S(C)(=O)=O)CC4)CC3)nc12` (stereo not drawn) [Example 262], the IC50 in test [1] came to 354 nM; in test [2] it was 170 nM; in test [3] it was 19 nM.

With `CNC1CCC(c2ccc3[nH]c(-c4cn(CC#N)c5ncccc45)c(C(C)C)c3n2)CC1` (stereo not drawn) [Example 263], the IC50 in test [1] worked out at 338 nM; in test [2], 6.2 nM; in test [3] it was 7.6 nM.

For the compound `CNC1CCC(c2ccc3[nH]c(-c4cn(CCS(C)(=O)=O)c5ncccc45)c(C(C)C)c3n2)CC1` (stereo not drawn) [Example 264], the half-inhibitory concentration (IC50) in test [1] came to 255 nM; in test [2], 55 nM; in test [3], 42 nM.

With `CC(C)c1c(-c2cn(C)c3ncccc23)[nH]c2ccc(C3CCC(NC4CCOCC4)CC3)nc12` (stereo not drawn) [Example 265], the IC50 in test [1] turned out to be 392 nM; in test [2] it was 0.59 nM; in test [3] it was 0.91 nM.

For the compound `CC(C)c1c(-c2cn(CCS(C)(=O)=O)c3ncccc23)[nH]c2ccc(C3CCC(NC4CCOCC4)CC3)nc12` (stereo not drawn) [Example 266], the IC50 in test [1] was 322 nM; in test [2], 45 nM; in test [3], 13 nM.

On to `CC(C)c1c(-c2cn(C)c3ncccc23)[nH]c2ccc(C3CCC(NC4CCOCC4)CC3)nc12` (stereo not drawn) [Example 267], for which the IC50 in test [1] turned out to be 453 nM; in test [2], 1.9 nM; in test [3], 2.6 nM.

For the compound `CC(C)c1c(-c2cn(CC#N)c3ncccc23)[nH]c2ccc(C3CCC(NC4CCOCC4)CC3)nc12` (stereo not drawn) [Example 268], the IC50 in test [1] was determined as 578 nM; in test [2], 94 nM; in test [3] it was 32 nM.

Regarding `CNC1CCC(c2ccc3[nH]c(-c4cn(CCS(C)(=O)=O)c5ncccc45)c(C(C)C)c3n2)CC1` (stereo not drawn) [Example 269], the IC50 in test [1] was 670 nM; in test [2], 223 nM; in test [3], 88 nM.

With `CNC1CCC(c2ccc3[nH]c(-c4cn(CC#N)c5ncccc45)c(C(C)C)c3n2)CC1` (stereo not drawn) [Example 270], the IC50 in test [1] is 322 nM; in test [2], 38 nM; in test [3], 28 nM.

With `CC(C)c1c(-c2cn(CCS(C)(=O)=O)c3ncccc23)[nH]c2ccc(C3CCC(NC4CCCOC4)CC3)nc12` (stereo not drawn) [Example 271], the IC50 came out at 228 nM in test [1], 120 nM in test [2] and 40 nM in test [3].

`CC(C)c1c(-c2cn(CC#N)c3ncccc23)[nH]c2ccc(C3CCC(NCC(=O)N(C)C)CC3)nc12` (stereo not drawn) [Example 272]: the figures for the IC50 in test [1], in test [2] and in test [3] were 398 nM, 76 nM and 50 nM, respectively.

As for `CC(C)c1c(-c2cn(CC#N)c3ncccc23)[nH]c2ccc(C3CCC(NCCS(C)(=O)=O)CC3)nc12` (stereo not drawn) [Example 273], the IC50 in test [1] is 1110 nM; in test [2], 75 nM; in test [3], 66 nM.

Consider `CC(C)c1c(-c2cn(CC#N)c3ncccc23)[nH]c2ccc(C3CCC(NC4CCCOC4)CC3)nc12` (stereo not drawn) [Example 274], for which the values for the IC50 in test [1], in test [2] and in test [3] were 474 nM, 8.5 nM and 3.7 nM, respectively.

For `CC(C)c1c(-c2cn(CC#N)c3ncccc23)[nH]c2ccc(C3CCC(NCCS(C)(=O)=O)CC3)nc12` (stereo not drawn) [Example 275], the values for the IC50 in test [1], in test [2] and in test [3] were 684 nM, 14 nM and 8.5 nM, respectively.

Regarding `CC(C)c1c(-c2cn(CC#N)c3ncccc23)[nH]c2ccc(C3CCC(NCC(=O)N(C)C)CC3)nc12` (stereo not drawn) [Example 276], the IC50 in test [1] is 309 nM; in test [2], 8.9 nM; in test [3], 9 nM.

Regarding `COc1cc(-c2[nH]c3ccc(C4CCC(N(CC#N)C5COC5)CC4)nc3c2C(C)C)cn2ncnc12` (stereo not drawn) [Example 277], the half-maximal inhibitory concentration (IC50) in test [1] was 1380 nM; in test [2] it was 0.4 nM; in test [3], 1.6 nM.

As for `CC(C)c1c(-c2cn(C)c3ncccc23)[nH]c2ccc(C3CCC(NCC(C)(C)S(C)(=O)=O)CC3)nc12` (stereo not drawn) [Example 278], the IC50 in test [1] amounted to 837 nM; in test [2] it was 1.5 nM; in test [3] it was 1.2 nM.

As to `Cc1cc(-c2[nH]c3ccc(C4CCC(NC5COC5)CC4)nc3c2C(C)C)cn2ncnc12` (stereo not drawn) [Example 279], the IC50 stood at 1820 nM in test [1], 0.31 nM in test [2] and 1.4 nM in test [3].
